The source of these data is ChEMBL document CHEMBL3045882, “Synthesis and biological activity evaluation of novel β-substituted nitromethylene neonicotinoid analogues” (2012).

Usually LC50 stands for the concentration lethal to half of the exposed cells or organisms. Low values mean a more lethal substance, high ones a less lethal substance. Broadly, the mortality is the percentage killed.

Assay [1] relates to Aphis craccivora. The assay can be described thus: Insecticidal activity against Aphis craccivora (cowpea aphid) infected soybean tender shoots after 24 hr. In kind it is functional.
The subject of assay [2] is Aphis craccivora. The assay can be described thus: Insecticidal activity against Aphis craccivora (cowpea aphid) infected soybean tender shoots assessed as mortality at 500 mg/L after 24 hr. In kind it is functional.

In the assay on Aphis craccivora [1], `N#CS/C(=C1\NCCN1Cc1ccc(Cl)nc1)[N+](=O)[O-]` had an LC50 of 15.7 µM. For the same molecule, the mortality at 500 µg/mL in the assay on Aphis craccivora [2] came to 100%.

In the case of `N#CS/C(C#N)=C1\NCCN1Cc1ccc(Cl)nc1`, the mortality at 500 µg/mL with Aphis craccivora [2] is 34.6%.

Consider `N#CS/C(=C1\NCCN1Cc1cnc(Cl)s1)[N+](=O)[O-]`, for which the median lethal concentration (LC50) in the assay on Aphis craccivora [1] was 9.74 µM. Further, the mortality at 500 µg/mL in the assay on Aphis craccivora [2] worked out at 100%.

In the case of `N#CS/C(C#N)=C1\NCCN1Cc1cnc(Cl)s1`, in the assay on Aphis craccivora [2], the mortality at 500 µg/mL was 0%.

Turning to `N#CS/C(=C1\NCCN1Cc1ccccc1)[N+](=O)[O-]`, the mortality at 500 µg/mL in the assay on Aphis craccivora [2] is 24%.

With `N#CS/C(=C1\NCCCN1Cc1ccc(Cl)nc1)[N+](=O)[O-]`, in the assay with Aphis craccivora [1], the LC50 came out at 24.9 µM. Further, the mortality at 500 µg/mL in the assay on Aphis craccivora [2] is 100%.

For `N#CS/C(=C1\NCCN1Cc1ccc(C(F)(F)F)nc1)[N+](=O)[O-]`, the LC50 in the assay with Aphis craccivora [1] was found to be 18.9 µM. Moreover, the mortality at 500 µg/mL with Aphis craccivora [2] worked out at 100%.

On to `N#CS/C(=C1\Nc2ccccc2N1Cc1ccc(Cl)nc1)[N+](=O)[O-]`, for which the mortality at 500 µg/mL with Aphis craccivora [2] is 87.8%.

`N=c1sc([N+](=O)[O-])c2n1CCN2Cc1ccc(Cl)nc1` came in with an LC50 in the assay on Aphis craccivora [1] of 26.8 µM. Besides, the mortality at 500 µg/mL in the assay with Aphis craccivora [2] was 100%.

As to `N#Cc1sc(=N)n2c1N(Cc1ccc(Cl)nc1)CC2`, the mortality at 500 µg/mL with Aphis craccivora [2] was determined as 32.4%.

`N=c1sc([N+](=O)[O-])c2n1CCN2Cc1cnc(Cl)s1` displayed a 50% lethal concentration (LC50) in the assay with Aphis craccivora [1] of 17.8 µM. The mortality at 500 µg/mL in the assay on Aphis craccivora [2] came out at 100%.

In the case of `N=c1sc([N+](=O)[O-])c2n1CCN2Cc1ccccc1`, the mortality at 500 µg/mL in the assay on Aphis craccivora [2] amounted to 16.2%.

In the assay with Aphis craccivora [1], `N=c1sc([N+](=O)[O-])c2n1CCCN2Cc1ccc(Cl)nc1` yielded an LC50 of 22 µM. Besides, in the assay with Aphis craccivora [2], the mortality at 500 µg/mL came out at 100%.

In the assay with Aphis craccivora [1], `N=c1sc([N+](=O)[O-])c2n1CCN2Cc1ccc(C(F)(F)F)nc1` yielded an LC50 of 24.5 µM. For the same molecule, the mortality at 500 µg/mL in the assay on Aphis craccivora [2] was 100%.

For `CCN(Cc1ccc(Cl)nc1)c1c([N+](=O)[O-])sc(=N)n1C`, in the assay on Aphis craccivora [2], the mortality at 500 µg/mL is 57.6%.

Regarding `Cn1c(NCc2ccc(Cl)nc2)c([N+](=O)[O-])sc1=N`, the LC50 in the assay with Aphis craccivora [1] was found to be 118 µM. Besides, the mortality at 500 µg/mL in the assay on Aphis craccivora [2] is 100%.

Regarding `CCn1c(NCc2ccc(Cl)nc2)c([N+](=O)[O-])sc1=N`, the mortality at 500 µg/mL in the assay with Aphis craccivora [2] is 50.8%.
